In US7241861B2, “High density lipoprotein-reactive peptides” (Japan Immunoresearch Laboratories Co., Ltd., priority 2001, dated 2007):

Columns and labels:
HDL cholesterol = assay: Reactivity with HDL: HDL sample reacted with peptide-bound affinity gel, analysis of unbound fraction; type: binding, Human; settings: for reduction of total cholesterol level of HDL: Example 5, total cholesterol level of applied HDL sample 12.7 mg/dl
Description: The peptide obtained in (1) above (B100FL, 0.1 mg) was added to affinity gel (25 μL) to which an anti-apo B-100 monoclonal antibody (JI-H) had been immobilized, whereby a B100FL-bound affinity gel was prepared. A control gel was prepared by treating gel with PBS (not containing B100FL) in a manner similar to the above.
Human plasma (1 mL) was added to affinity gel (2 mL) to which an anti-apo A-I monoclonal antibody had been immobilized, to thereby cause HDL to be specifically bound to the gel. The bound HDL was eluted with 3M sodium thiocyanate, and the buffer of the thus-obtained eluent was changed to PBS through use of a column for desalting, to thereby prepare an HDL sample.
The aforementioned anti-apo A-I monoclonal antibody immobilized affinity gel and anti-apo B-100 monoclonal antibody (JI-H) immobilized affinity gel were prepared in accordance with a conventional method (Japanese Patent Publication (kokoku) No. 7-104351).
The HDL sample (containing 20 μg of apo A-I) was reacted with the B100FL-bound affinity gel for 30 minutes at room temperature. Subsequently, the reaction mixture was left to stand for 15 minutes to thereby cause the gel to precipitate, to thereby remove the gel from the reaction mixture.
Total cholesterol level: Total cholesterol level was determined with a reagent for measuring cholesterol level (L-TCII, Kyowa Medex Co., Ltd.) by means of an autoanalyzer (TBA20R; Toshiba).
Lipoprotein analysis: Lipoprotein was analyzed through HPLC of a lipoprotein analysis system (Lipopropax XL, eluent: TSK eluent LP-1, 1 mL/min., sample volume: 100 μL; Tosoh) by monitoring colors produced by cholesterol.
Protein concentration: Each protein concentration was determined by measuring absorbance (OD280); or through the Lowry method in which each sample (which had been delipidized with ethanol-ether) was subjected to color reaction.
Protein analysis: Protein was analyzed by SDS-gel electrophoresis. Specifically, each sample was subjected to delipidizing treatment and solubilized with 1% SDS, followed by treatment with a buffer (2% SDS/10% glycerol/0.005% BPB/20% 2-mercaptoethanol), to thereby prepare a sample for electrophoresis. The resultant sample was electrophoresed in a 4-20% gradient gel in accordance with a conventional method.
In a manner similar to that described in Example 1 (3), reactivity of PS509 (synthesized in Example 2) with HDL was examined (as a test peptide, B-100FL or PS509 was employed, and the total cholesterol level of the applied HDL sample was 12.7 mg/dl).

RAW264 cells = assay: Cholesterol efflux test in RAW264 cells loaded with acetylated LDL; type: cell-based, mouse; settings: foam with acetylated LDL; peptide 20, 2.0 or 0.2 μg/mL, 24 hours; supernatant cholesterol (FIG. 4)
Description: The aforementioned peptides were examined with regard to cholesterol efflux effect from RAW264 cells (a model of atherosclerosis).
Specifically, RAW264 cells (mouse monocytic leukemia cell strain) were added to DMEM medium that had been supplemented with 10% FBS, to thereby prepare a specimen having a concentration of 4×10^5 cells/mL. An aliquot of the specimen (1 mL) was added to each well of a 12-well plate, followed by culture for two days in a CO2 incubator (37° C.). The medium in each well was removed, and the cells in the well were washed once with 1 mL of DMEM containing 0.2% BSA and 20 mM glutamine (hereinafter referred to as “DMEM”). Subsequently, a solution of acetylated LDL in DMEM (40 μg/mL, 1 mL) was added to each well, followed by culture for 24 hours in a CO2 incubator (37° C.), whereby acetylated LDL entered into the cells. The cells were washed twice with PBS supplemented with 0.2% BSA. Thereafter, a solution of dibutyl cAMP in DMEM (0.3 mM, 1 mL) was added to each well, followed by incubation for 2 hours in a CO2 incubator (37° C.).
The test peptide (20 μL) was added to each well so as to attain a final concentration of 20, 2.0, or 0.2 μg/mL, followed by culture for 24 hours in a CO2 incubator (37° C.).
After 24 hours, the supernatant of each well was collected in a microtube, and the microtube was centrifuged for five minutes at 10,000 rpm. The cholesterol level of the supernatant was measured by means of the autoanalyzer described above.
Each test peptide was dissolved in DMSO (5 mg/mL), and the thus-formed solution was diluted with DMEM so as to attain a concentration of 1 mg/mL. Subsequently, the resultant solution was diluted 10-fold or 100-fold with DMEM, to thereby prepare a test sample. Moreover, in order to prepare a control sample, only DMSO was diluted with DMEM so as to attain a final concentration of 0.4, 0.04, or 0.004%; and in order to prepare a positive control sample, delipid HDL was diluted with DMEM so as to attain a concentration of 2.5, 5.0, or 10 μg/mL.

[1] = system: anti-apo B-100 monoclonal antibody (JI-H); assay: Reactivity with anti-apo B-100 monoclonal antibody (JI-H) by ELISA on peptide-coated plate; type: binding; settings: OD450 vs immobilized peptide concentration (FIG. 1)
Source text: (2) Reactivity with anti-apo b-100 Monoclonal Antibody (JI-H: J. Clin. Ligand Assay, 19 (3), 177 (1999))
The reactivity was confirmed through ELISA in accordance with a conventional method by using a plate coated with the peptide obtained above (B100FL) (see Japanese Patent Application Laid-Open (kokai) No. 4-104798).

[2] = system: quail arteriosclerosis model; assay: Effect test by use of an arteriosclerosis model (high-cholesterol-fed quails, aortic arch histology); type: in vivo
Source text: Cholesterol (Wako Pure Chemical Industries, Ltd.) and corn oil (Corn Germ Oil 100; Ajinomoto Co., Inc.) were incorporated into a commercially available feed (product of Natural Pet Foods, “Chicks and nestlings (Quail)”) so as to attain final concentrations of 2% and 15%, respectively, to thereby prepare a high-cholesterol feed.
Healthy quails were bred while being allowed to freely intake the high-cholesterol feed for eight weeks. From five weeks after the beginning of breeding, a solution of the test peptide (B-100FL) in saline (1.0 mg/mL) was administered to the brachial (wing) vein (200 μL; 200 μg/body) twice a week at the interval of two through three days. In a manner similar to that described above, only saline was administered to the quails of a control group.
After the quails had been bred for eight weeks, the head of each quail was cut for exsanguination, and an aorta sample was obtained. The aorta sample was immediately fixed in a fixing solution (10% formalin) for three days. Subsequently, a tissue specimen (a frozen section having a thickness of 4 μm) of the aortic arch (where arteriosclerosis foci are most likely to occur) was prepared. The tissue specimen was subjected to hematoxylin-and-eosin staining (routine staining), and to oil-red staining (fat staining), followed by examination under a microscope.

[3] = 200 μg/body i.v. twice a week from week 5 to 8, aortic arch section

## FERINDVLEHVKHFVINLIGDFEVAEKINA (FERINDVLEHVKHFVINLIGDFEVAEKINA) [PS509, Apo B-100 position 2,307–2,336]
HDL cholesterol
  reduction of total cholesterol level of HDL: about 48 percentage points
RAW264 cells
  cholesterol efflux effect from RAW264 cells: strong cholesterol efflux effect

## DFEVAEKINA FRAKVHEL IE R [P21]
RAW264 cells
  cholesterol efflux effect from RAW264 cells: not to exhibit the effect

## LLDQLGTTISFERINDVLEHVKHFVINLIG (LLDQLGTTISFERINDVLEHVKHFVINLIG) [PS505, Apo B-100 position 2,297–2,326]
RAW264 cells
  cholesterol efflux effect from RAW264 cells: strong cholesterol efflux effect

## EKINA FRAKVHEL IE R [PS508]
RAW264 cells
  cholesterol efflux effect from RAW264 cells: not to exhibit the effect

## LLDQLGTTISFERINDVLEHVKHF (LLDQLGTTISFERINDVLEHVKHF) [PS506, Apo B-100 position 2,297–2,320]
RAW264 cells
  cholesterol efflux effect from RAW264 cells: not to exhibit the effect

## LLDQLGTTIS FERIND (LLDQLGTTISFERIND) [PS507, Apo B-100 position 2,297–2,312]
RAW264 cells
  cholesterol efflux effect from RAW264 cells: not to exhibit the effect

## LLDQLGTTISFERINDVLEHVKHFVINLIGDFEVAEKINAFRAKVHEL IE R (LLDQLGTTISFERINDVLEHVKHFVINLIGDFEVAEKINAFRAKVHELIER) [P51, 51 amino acid residues, the 2,297th to the 2,347th amino acid residues of apo B-100]
[1]
  reactivity with JI-H: specific reactivity
HDL cholesterol
  reduction of total cholesterol level of HDL: about 72 percentage points
HDL cholesterol; FIG. 2, HDL sample treated with B100FL-bound gel
  peak attributed to cholesterol (HDL-C) in lipoprotein analysis: does not include a peak
HDL cholesterol; HDL sample treated with B100FL-bound gel vs control gel
  total cholesterol level relative to HDL sample treated with the control gel: about 1/15
HDL cholesterol; HDL-cholesterol by lipoprotein analysis (HPLC) of fraction that did not bind to the B100FL gel
  HDL-C: 243.2 Area
HDL cholesterol; conclusion from cholesterol, lipoprotein and SDS-gel analysis
  interaction with cholesterol and cholesterol ester of HDL: has an effect of effluxing cholesterol and cholesterol ester from apoprotein particles of HDL
HDL cholesterol; fraction that did not bind to the B100FL gel, HDL sample containing 20 μg apo A-I, 30 min room temperature
  Cholesterol (total cholesterol level): 0.25 mg/dL
RAW264 cells
  cholesterol efflux effect from RAW264 cells: strong cholesterol efflux effect
[2]; 200 μg/body i.v. (wing vein) twice a week from week 5 to 8 of high-cholesterol feed, aortic arch section
  lipid accumulation in the internal tunica: a small amount of lipid accumulation was observed
[2]; [3]
  morphological disorder of the vessel internal tunica: no morphological disorder
  thickening of the internal tunica and lipid infiltration into the middle tunica: absent
